How the values were obtained:
hSTING = hSTING (Homo sapiens, UniProt Q86WV6); conditions: Conlon et al.; cited from earlier work
[1] = human clinical trials; cited from earlier work
variant STING alleles = assay: UV crosslinking binding assay of variant STING alleles to 32P-c-di-GMP; design: species or system mouse and human; conditions: lysates of transfected 293T cells, FIG. 3B
Protocol: FIG. 1, panels A-F show the variable responsiveness of human STING variants to cyclic-di-nucleotides maps to arginine 232. (Panel A) THP-1 cells were transduced with vectors encoding an shRNA targeting STING or a control shRNA. Cells were then stimulated with cyclic-di-GMP (cdG), dsDNA, cyclic-di-AMP (cdA), poly-inosine:cytosine (pI:C), or Sendai Virus, and induction of human interferon-β mRNA was assessed by quantitative reverse transcriptase PCR. (Panel B) Western blotting confirmed that knockdown of STING was effective. (Panel C) HEK293T cells were transfected with the indicated amounts of various mouse (m) or human (h) STING expression plasmid and then stimulated 6 h later by transfection with synthetic cdG (5 μM). […] STING activation was assessed by use of a co-transfected IFN-luciferase reporter construct. […] IFN induction was measured by qRT-PCR. ND, not detected. […] Binding was quantified by autoradiography. […]
(Panel A) 293T cells were transfected with the indicated alleles of mouse (m)STING or human (h)STING and were then stimulated with c-di-GMP (cdG). STING activity was detected by the induction of a co-transfected IFN-luciferase reporter construct and expressed as fold-induction over luciferase activity of unstimulated cells. (Panel B) Lysates of transfected 293T cells were UV crosslinked in the presence of α32P-c-di-GMP, resolved by SDS-PAGE, and then analyzed by autoradiography. […]

Chain of hSTING (Q86WV6 whole entry): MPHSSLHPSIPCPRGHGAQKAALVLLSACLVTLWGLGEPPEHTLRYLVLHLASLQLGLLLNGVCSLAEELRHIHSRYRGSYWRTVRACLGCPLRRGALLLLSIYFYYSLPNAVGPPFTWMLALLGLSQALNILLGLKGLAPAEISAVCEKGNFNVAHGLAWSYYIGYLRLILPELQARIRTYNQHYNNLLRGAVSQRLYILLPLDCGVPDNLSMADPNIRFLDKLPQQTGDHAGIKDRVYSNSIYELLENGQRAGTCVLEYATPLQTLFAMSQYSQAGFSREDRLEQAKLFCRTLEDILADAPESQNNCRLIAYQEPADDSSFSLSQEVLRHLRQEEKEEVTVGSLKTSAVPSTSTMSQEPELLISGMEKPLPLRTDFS

SMILES | stimulation of hSTING (hSTING) | efficacy in humans [1] | binding to variant STING alleles (variant STING alleles)
Cc1ccc2c(=O)c3cccc(CC(=O)O)c3oc2c1C [DMXAA] | unable to stimulate | not found to be efficacious | 
Nc1nc2c(ncn2[C@@H]2O[C@@H]3COP(=O)(O)O[C@H]4[C@@H](O)[C@H](n5cnc6c(=O)[nH]c(N)nc65)O[C@@H]4COP(=O)(O)O[C@H]3[C@H]2O)c(=O)[nH]1 [cyclic-di-GMP] |  |  | bound
